The record followed here is US20130116263A1, “PAK INHIBITORS FOR THE TREATMENT OF CELL PROLIFERATIVE DISORDERS” (AFRAXIS, INC., priority 2011, published 2013).

For orientation: IC50 means the midpoint of a concentration-inhibition curve.

Read-outs that look alike come from different tables or passages of the source.

What all share (format): biochemical
Assay [1] deals with PAK1 (Homo sapiens, UniProt Q13153). The assay is described as follows: In vitro PAK inhibition assay (Z'-LYTE, SelectScreen), PAK1. As to the method:
(§1) Compounds are screened in 1% DMSO (final) in the well. For 10 point titrations, 3-fold serial dilutions are conducted. All Peptide/Kinase Mixtures are diluted to a 2× working concentration in the appropriate Kinase Buffer
The 2×PAK1/Ser/Thr 19 mixture is prepared in 50 mM HEPES pH 7.5, 0.01% BRIJ-35, 10 mM MgCl2, 1 mM EGTA.
(§2) 1. Add the following solutions to a well in a 384-well plate: • 2.5 μL of 4× Test Compound OR (100 nL 100× Test Compound plus 2.4 μL kinase buffer) • 5 μL of 2× Peptide/Kinase (PAK) Mixture • 2.5 μL of 4×ATP Solution
(§3) 3. Incubate the PAK Kinase Reaction at room temperature for 60-minutes
(§4) 4. Add 5 μL of Development Reagent Solution to each well
(§5) 6. Incubate the Development Reaction for 60-minutes
(§6) 7. Determine the fluorescence using a fluorescence plate reader
(§7) SelectScreen® Kinase Profiling Service uses XLfit from IDBS.
(§8) The representative IC50 value with a known inhibitor for each kinase was determined at the ATP bin nearest to the ATP Km app.

For assay [2], the target named is PAK2 (PAK65) (Homo sapiens, UniProt Q13177). The experiment in a line: In vitro PAK inhibition assay (Z'-LYTE, SelectScreen), PAK2. As to the method: as §1
The 2×PAK2 (PAK65)/Ser/Thr 20 mixture is prepared in 50 mM HEPES pH 7.5, 0.01% BRIJ-35, 10 mM MgCl2, 1 mM EGTA. The final 10 μL Kinase Reaction consists of 0.29-6 ng PAK2 (PAK65) and 2 μM Ser/Thr 20 in 50 mM HEPES pH 7.5, 0.01% BRIJ-35, 10 mM MgCl2, 1 mM EGTA.
as §2, §3, §4, §5, §6, §7, §8

For assay [3], the target named is PAK3 (Homo sapiens, UniProt O75914). The experiment in a line: In vitro PAK inhibition assay (Z'-LYTE, SelectScreen), PAK3. As to the method: as §1
The 2×PAK3/Ser/Thr 20 mixture is prepared in 50 mM HEPES pH 7.5, 0.01% BRIJ-35, 10 mM MgCl2, 1 mM EGTA.
as §2, §3, §4, §5, §6, §7, §8

Assay [4] concerns the target PAK4 (Homo sapiens, UniProt O96013). The experiment in a line: In vitro PAK inhibition assay (Z'-LYTE, SelectScreen), PAK4. As to the method:
as §1
The 2×PAK-4/Ser/Thr 20 mixture is prepared in 50 mM HEPES pH 7.5, 0.01% BRIJ-35, 10 mM MgCl2, 1 mM EGTA. The final 10 μL Kinase Reaction consists of 0.1-0.75 ng PAK-4 and 2 μM Ser/Thr 20 in 50 mM HEPES pH 7.5, 0.01% BRIJ-35, 10 mM MgCl2, 1 mM EGTA. After the 1 hour Kinase Reaction incubation, 5 μL of a 1:256 dilution of Development Reagent A is added.
as §2, §3, §4, §5, §6
SelectScreen® Kinase Profiling Service uses XLfit from IDBS. The dose response curve is curve fit to model number 205 (sigmoidal dose-response model).
The table below provides specifications and data around each kinase. The representative IC50 value with a known inhibitor for each kinase was determined at the ATP bin nearest to the ATP Km app.

Sequence of PAK1 (Q13153 whole entry): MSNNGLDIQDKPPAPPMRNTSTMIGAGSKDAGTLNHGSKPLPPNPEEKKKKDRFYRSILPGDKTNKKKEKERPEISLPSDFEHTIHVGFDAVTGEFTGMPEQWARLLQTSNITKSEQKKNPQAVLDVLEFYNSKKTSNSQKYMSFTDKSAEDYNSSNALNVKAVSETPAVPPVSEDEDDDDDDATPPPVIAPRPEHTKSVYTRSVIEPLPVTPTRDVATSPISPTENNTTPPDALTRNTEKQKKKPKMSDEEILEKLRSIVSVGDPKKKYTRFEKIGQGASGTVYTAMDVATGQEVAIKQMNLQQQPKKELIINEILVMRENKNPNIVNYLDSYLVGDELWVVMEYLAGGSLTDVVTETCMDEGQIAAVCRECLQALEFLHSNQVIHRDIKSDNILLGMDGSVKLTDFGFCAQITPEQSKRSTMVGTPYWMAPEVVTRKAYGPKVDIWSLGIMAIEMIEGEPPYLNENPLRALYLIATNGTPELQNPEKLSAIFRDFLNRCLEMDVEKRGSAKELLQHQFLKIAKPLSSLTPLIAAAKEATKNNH
Sequence of PAK3 (O75914 1-544 isoform O75914-2): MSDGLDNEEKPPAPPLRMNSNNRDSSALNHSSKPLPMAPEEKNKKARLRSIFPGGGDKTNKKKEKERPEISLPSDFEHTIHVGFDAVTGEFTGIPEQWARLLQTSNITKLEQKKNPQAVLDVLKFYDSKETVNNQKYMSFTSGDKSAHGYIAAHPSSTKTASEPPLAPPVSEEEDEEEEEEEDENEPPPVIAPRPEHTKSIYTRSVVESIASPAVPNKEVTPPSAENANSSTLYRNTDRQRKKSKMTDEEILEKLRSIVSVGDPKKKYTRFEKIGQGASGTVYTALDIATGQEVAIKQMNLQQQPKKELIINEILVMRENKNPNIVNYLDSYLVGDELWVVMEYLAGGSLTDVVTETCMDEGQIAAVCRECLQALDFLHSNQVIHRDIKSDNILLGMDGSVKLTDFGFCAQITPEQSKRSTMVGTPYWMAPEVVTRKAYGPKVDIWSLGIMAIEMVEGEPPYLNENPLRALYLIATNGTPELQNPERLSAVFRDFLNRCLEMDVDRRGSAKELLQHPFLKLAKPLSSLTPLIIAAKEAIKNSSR
Sequence of PAK2 (PAK65) (Q13177 whole entry): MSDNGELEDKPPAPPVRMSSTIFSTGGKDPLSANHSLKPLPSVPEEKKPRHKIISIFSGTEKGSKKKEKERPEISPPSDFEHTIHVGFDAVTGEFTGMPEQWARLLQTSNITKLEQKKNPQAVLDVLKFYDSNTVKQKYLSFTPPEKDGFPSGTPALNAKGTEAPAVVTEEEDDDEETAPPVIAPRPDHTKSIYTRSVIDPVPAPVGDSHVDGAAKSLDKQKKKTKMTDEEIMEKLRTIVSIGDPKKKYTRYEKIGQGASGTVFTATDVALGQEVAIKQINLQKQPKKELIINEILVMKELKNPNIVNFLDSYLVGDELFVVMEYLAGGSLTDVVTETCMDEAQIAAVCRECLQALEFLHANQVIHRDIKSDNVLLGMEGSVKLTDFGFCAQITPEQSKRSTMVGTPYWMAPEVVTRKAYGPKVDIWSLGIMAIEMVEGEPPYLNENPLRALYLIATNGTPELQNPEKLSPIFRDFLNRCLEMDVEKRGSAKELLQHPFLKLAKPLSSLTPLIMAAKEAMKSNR
Sequence of PAK4 (O96013 whole entry): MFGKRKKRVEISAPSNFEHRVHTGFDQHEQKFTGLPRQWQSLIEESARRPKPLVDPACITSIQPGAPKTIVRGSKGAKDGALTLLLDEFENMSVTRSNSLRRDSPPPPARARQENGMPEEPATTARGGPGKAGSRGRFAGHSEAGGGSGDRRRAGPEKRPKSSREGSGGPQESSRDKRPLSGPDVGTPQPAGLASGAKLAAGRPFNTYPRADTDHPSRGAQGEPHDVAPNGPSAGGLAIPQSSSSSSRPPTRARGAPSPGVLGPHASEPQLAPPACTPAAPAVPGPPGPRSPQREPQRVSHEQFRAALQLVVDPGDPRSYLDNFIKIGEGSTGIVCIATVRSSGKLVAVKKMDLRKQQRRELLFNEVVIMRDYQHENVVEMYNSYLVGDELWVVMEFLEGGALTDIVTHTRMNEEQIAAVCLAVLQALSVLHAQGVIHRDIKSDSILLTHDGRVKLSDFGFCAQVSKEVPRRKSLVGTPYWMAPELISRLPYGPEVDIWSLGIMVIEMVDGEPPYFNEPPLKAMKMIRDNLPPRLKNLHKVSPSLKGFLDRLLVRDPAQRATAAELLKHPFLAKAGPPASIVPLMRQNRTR

In the case of `CCn1c(=O)c(-c2ccc(-c3cncc(C)n3)cc2Cl)cc2cnc(NCCOCCN(C)C)nc21` [Example 127, 6-(2-chloro-4-(6-methylpyrazin-2-yl)phenyl)-2-((2-(2-(dimethylamino)ethoxy)ethyl)amino)-8-ethylpyrido[2,3-d]pyrimidin-7(8H)-one], the IC50 in assay [1] (read-out: PAK1 IC50) is 50 to 500 nM; in assay [2] (read-out: PAK2 IC50) it was 50 to 500 nM; in assay [3] (read-out: PAK3 IC50), 50 to 500 nM; in assay [4], > 5 µM.

Take `COCCCn1c(=O)c(-c2ccc(-c3cncc(C)n3)cc2Cl)cc2cnc(N[C@H]3CCOC3)nc21` [Example 65]: the concentration for half-maximal inhibition (IC50) in assay [1] (read-out: PAK1 IC50) was < 50 nM; in assay [2] (read-out: PAK2 IC50), < 50 nM; in assay [3] (read-out: PAK3 IC50) it was 50 to 500 nM; in assay [4], > 5 µM.

Regarding `Cc1nccnc1-c1ccc(-c2cc3cnc(N[C@H]4CCOC4)nc3n(Cc3ccccn3)c2=O)c(Cl)c1` [Example 125], the 50% inhibitory concentration (IC50) in assay [1] (read-out: PAK1 IC50) was < 50 nM; in assay [2] (read-out: PAK2 IC50), < 50 nM; in assay [3] (read-out: PAK3 IC50), 50 to 500 nM; in assay [4], > 5 µM.

On to `Cc1nc(-c2ccc(-c3cc4cnc(NC5CCOCC5)nc4[nH]c3=O)c(Cl)c2)no1` [Example 11], for which the IC50 in assay [1] (read-out: PAK1 IC50) was 50 to 500 nM; in assay [2] (read-out: PAK2 IC50), 50 to 500 nM; in assay [3] (read-out: PAK3 IC50) it was 50 to 500 nM; in assay [4], > 5 µM.

`Cc1nc(-c2ccc(-c3cc4cnc(NC5CCOCC5)nc4n(Cc4ccccc4C(F)(F)F)c3=O)c(Cl)c2)no1` [Example 24]: the half-maximal inhibitory concentration (IC50) was 50 to 500 nM in assay [1], 50 to 500 nM in assay [2], 50 to 500 nM in assay [3] (PAK3 IC50 (nM)) and > 5 µM in assay [4].

As to `CCn1c(=O)c(-c2ccc(-c3cncc(C)n3)cc2Cl)cc2cnc(NC3CCC(CCN)CC3)nc21` (stereo not drawn) [Example 134], the IC50 in assay [1] (read-out: PAK1 IC50) was < 50 nM; in assay [2] (read-out: PAK2 IC50) it was < 50 nM; in assay [3] (read-out: PAK3 IC50) it was 50 to 500 nM; in assay [4], > 5 µM.

On to `CCn1c(=O)c(-c2ccc(-c3cnc(C)s3)cc2Cl)cc2cnc(N[C@@H]3CCOC3)nc21` [Example 55], for which the IC50 is 50 to 500 nM in assay [1] (read-out: PAK1 IC50), 50 to 500 nM in assay [2] (read-out: PAK2 IC50), 500 to 5000 nM in assay [3] (read-out: PAK3 IC50) and > 5 µM in assay [4].

Regarding `CCn1c(=O)c(-c2ccc(-c3nccnc3C)cc2Cl)cc2cnc(NCCC3CCN(C)CC3)nc21` [Example 91], the 50% inhibitory concentration (IC50) in assay [1] (read-out: PAK1 IC50) was < 50 nM; in assay [2] (read-out: PAK2 IC50) it was < 50 nM; in assay [3] (read-out: PAK3 IC50), 50 to 500 nM; in assay [4] it was > 5 µM.

`CCn1c(=O)c(-c2ccc(-c3noc(C)n3)cc2Cl)cc2cnc(N[C@H]3CC[C@H](N)CC3)nc21` [Example 94]: the IC50 in assay [1] (read-out: PAK1 IC50) is 50 to 500 nM; in assay [2] (read-out: PAK2 IC50), 50 to 500 nM; in assay [3] (read-out: PAK3 IC50), 50 to 500 nM; in assay [4], > 5 µM.

For the molecule `CCn1c(=O)c(-c2ccc(-c3cncc(C)n3)cc2Cl)cc2cnc(N[C@H]3CC[C@H](CN)CC3)nc21` [Example 87], the IC50 in assay [1] (read-out: PAK1 IC50) was < 50 nM; in assay [2] (read-out: PAK2 IC50), < 50 nM; in assay [3] (read-out: PAK3 IC50), < 50 nM; in assay [4], > 5 µM.

On to `Cc1cncc(-c2ccc(-c3cc4cnc(NCC(C)C)nc4n([C@H]4CC[C@H](N)CC4)c3=O)c(Cl)c2)n1` [Example 115], for which the IC50 is < 50 nM in assay [1] (read-out: PAK1 IC50), < 50 nM in assay [2] (read-out: PAK2 IC50), < 50 nM in assay [3] (read-out: PAK3 IC50) and 0.5 to 5 µM in assay [4].

For `CCn1c(=O)c(-c2ccc(-c3nccnc3C)cc2Cl)cc2cnc(NC3CCN(C(C)=O)C3)nc21` (stereo not drawn) [Example 19], the IC50 in assay [1] (read-out: PAK1 IC50) was 50 to 500 nM; in assay [2] (read-out: PAK2 IC50), 50 to 500 nM; in assay [3] (read-out: PAK3 IC50), 500 to 5000 nM; in assay [4], > 5 µM.

Regarding `Cc1cncc(-c2ccc(-c3cc4cnc(NCC5CC5)nc4n([C@H]4CC[C@H](N)CC4)c3=O)c(Cl)c2)n1` [Example 113], the IC50 in assay [1] (read-out: PAK1 IC50) is < 50 nM; in assay [2] (read-out: PAK2 IC50) it was < 50 nM; in assay [3] (read-out: PAK3 IC50), < 50 nM; in assay [4] it was 0.5 to 5 µM.

In the case of `CCn1c(=O)c(-c2ccc(-c3cncc(C)n3)cc2Cl)cc2cnc(N[C@H]3CCOC3)nc21` [Example 27], the concentration for half-maximal inhibition (IC50) in assay [1] (read-out: PAK1 IC50) is 50 to 500 nM; in assay [2] (read-out: PAK2 IC50), < 50 nM; in assay [3] (read-out: PAK3 IC50), 50 to 500 nM; in assay [4], > 5 µM.

Turning to `Cc1cncc(-c2ccc(-c3cc4cnc(NC5CCOCC5)nc4n(C4CCCC4)c3=O)c(Cl)c2)n1` [Example 89], the IC50 in assay [1] (read-out: PAK1 IC50) was 50 to 500 nM; in assay [2] (read-out: PAK2 IC50) it was 50 to 500 nM; in assay [3] (read-out: PAK3 IC50), 50 to 500 nM; in assay [4] it was > 5 µM.
